Patent US11963998B2, “Modulation of heparin-binding epidermal growth factor activity for tympanic membrane healing” (The Board of Trustees of the Leland Stanford Junior …, priority 2013, dated 2024)

How the values were obtained:
[1] = tested on: acute tympanic perforations in mice; assay: HB-EGF inhibitor applied to acute tympanic membrane perforations (chronic TM perforation model); type: in vivo; conditions: for Perforations open at 2 months / Perforations open at 3 months: mice, OSU8-1 10 mM on gel foam over seven days
Description: EGFR ligand shedding can be inhibited to create a chronic tympanic membrane perforation model. Subtotal perforations were created in the pars tensa of TMs in 20 mice using a curved needle. OSU8.1 (10 mM), a selective HB-EGF inhibitor (see Tokumaru et al. (2000) J. Cell Biol.), was injected onto gel foam (placed through and onto the perforation) over seven days. Mice were sacrificed at time points (Day 2, 7, 14, 30, 44, 60 and 90) to observe the effects on keratinocyte migration. The contralateral ear was used as a control with saline placed onto gel foam. All of these were closed within 2 weeks. Five of seven (71%) of the treatment ears were open at three months. Perforation size was stable over three months (using ImageJ to calculate the perforation area as a percentage of the pars tensa area). A larger cohort was undertaken with 87.9% (n=58) having chronic perforations at 3 months.
100% of HB-EGF inhibitor treated perforations were present at two months compared to 5% of controls and 71% were present at three months compared to 5% of controls

[2] = tested on: chronic perforation model with ET occlusion inoculated with Pseudomonas aeruginosa; assay: HB-EGF treatment in animal model for chronic suppurative otitis media (CSOM); type: in vivo, mice; conditions: polymer and HB-EGF at 5 μg/ml
Description: Testing in an animal model for chronic suppurative otitis media. After creating the chronic perforation model with ET occlusion, Pseudomonas aeruginosa (dose of 6×10^9 colony forming units per ml) were inoculated into the middle ear through the existing chronic perforations. At 2 weeks the ear fluid was collected and sent for polymerase chain reaction (PCR) to confirm the presence of bacteria. This positive PCR validated the CSOM model. The mice were then divided into two cohorts. One received polymer only. The other received polymer and HB-EGF at 5 μg/ml (same dose used in above models). 100% of the HB-EGF group healed (16 of 16) compared to 41% (7/17) in the control group (p<0.01). In the control group the healing was also different when it did occur. The TM was often very thin and transluscent compared to a slightly opaque normal TM. […] The ability to still overcome this critical step in TM chronic wound healing using HB-EGF to activate EGFR ectodomain ligand in the closest model to human CSOM validates the method of treatment.

[3] = tested on: chronic perforations and ET occlusion in mice; assay: HB-EGF treatment of chronic TM perforations with Eustachian tube occlusion; type: in vivo
Description: HB-EGF heals chronic tympanic membrane perforations with Eustachian tube occlusion. An existing rat model of ET occlusion (see Herda et al. (2002) Laryngoscope 112:1657-62) was adapted to the mouse and has since been performed in 80 live mice with success. The ET occlusion was performed with the chronic perforation model described above. This created a wet sterile discharging perforation at 3 months. This model mimics the human condition of chronic perforation combined with ET dysfunction.
When a cohort of mice with this model (chronic perforations and ET occlusion) were treated with recombinant HB-EGF, 40 μl at a concentration of 5 μg/ml (sustained release dose via a bioabsorbable chitosan polymer) 94% (18 of 19) healed compared to 9% (2 of 23) of controls (polymer only) at 6 weeks (p<0.01). […] The ability to overcome this critical step in TM chronic wound healing using HB-EGF to activate EGFR ectodomain ligand shedding in the presence of middle ear effusions and ET occlusion is useful in treating patients with chronic tympanic membrane perforation.

[4] = tested on: chronic perforations in mice ears; assay: HB-EGF treatment of chronic tympanic membrane perforations; type: in vivo; conditions: 40 μl gel, 5 μg/ml, sustained release chitosan-based polymer; at 4 weeks; p<0.01 vs polymer only
Description: HB-EGF heals chronic tympanic membrane perforations. When a cohort of chronic perforations in mice ears were treated with 40 μl of a gel containing recombinant HB-EGF at a concentration of 5 μg/ml (sustained release dose via a bioabsorbable chitosan-based polymer) 92% (22 of 24) healed, compared to 38% (10 of 26) of controls (polymer only) at 4 weeks (p<0.01). […] This is the first growth factor treatment tested in an animal model of chronic perforation that has shown significant benefit over control.

| Molecule | chronic perforations at 3 months, larger cohort ([1]; larger cohort, n=58, 3 months) | Perforations open at 2 months [1] | Perforations open at 2 months ([1]; listed as HB-EGF inhibitor) | Perforations open at 3 months ([1]; 3 months) | Perforations open at 3 months ([1]; 3 months, listed as HB-EGF inhibitor) | Perforations open at 3 months ([1]; 3 months, listed as OSU8.1) | Perforation size (perforation area as a percentage of the pars tensa area) ([1]; over three months, ImageJ) | appearance of healing in CSOM model [2] | perforations healed in CSOM model ([2]; p<0.01 vs polymer only) | chronic perforations with ET occlusion healed ([3]; 40 μl at 5 μg/ml, sustained release chitosan polymer, at 6 weeks, p<0.01 vs polymer only) | histology of perforation closure ([3]; chronic perforations and ET occlusion model) | chronic perforations healed [4] |
| --- | --- | --- | --- | --- | --- | --- | --- | --- | --- | --- | --- | --- |
| CNC(=O)[C@@H](NC(=O)[C@H](CC(C)C)[C@H](C)C(=O)NO)c1ccccc1 [OSU8-1] | 87.9% | 100% | 100% | 71% | 71% | 71% | stable | – | – | – | – | – |
| HB-EGF: recombinant heparin binding epidermal growth factor, delivered in a bioabsorbable chitosan-based polymer gel at 5 μg/ml (protein, UniProt Q99075 63-148, looked up, Heparin-binding EGF-like growth factor in chitosan-based gel) Heparin-binding EGF-like …: DLQEADLDLLRVTLSSKPQALATPNKEEHGKRKKKGKGLGKKRDPCLRKYKDFCIHGECKYVKELRAPSCICHPGYHGERCHGLSL | – | – | – | – | – | – | – | appeared normal | 100% | 94% | close with thick layer of keratinocytes | 92% |
